This is an account of results in ChEMBL document CHEMBL1208728, “Design, synthesis, and structure-activity relationships of pyrazole derivatives as potential FabH inhibitors” (Bioorg Med Chem Lett, 2010).

Structures are written as SMILES. Values after ≈ are worked out from the molar mass of the structure shown. Bounds are passed on as bounds.

The subject of one data set is Pseudomonas aeruginosa. Description: Antimicrobial activity against Pseudomonas aeruginosa ATCC 13525 by MTT assay. In kind it is functional. On the technique in general: Tetrazolium assays rely on reduction of a dye to a coloured formazan, in cell work by metabolically active cells.
A further data set has as its system Staphylococcus aureus. Description: Antimicrobial activity against Staphylococcus aureus ATCC 6538 by MTT assay. It counts as functional.
The target in data set [1] is T1, 3-oxoacyl-[acyl-carrier-protein] synthase 3 (Escherichia coli, UniProt C3TDZ2).
T1 sequence (C3TDZ2 whole entry): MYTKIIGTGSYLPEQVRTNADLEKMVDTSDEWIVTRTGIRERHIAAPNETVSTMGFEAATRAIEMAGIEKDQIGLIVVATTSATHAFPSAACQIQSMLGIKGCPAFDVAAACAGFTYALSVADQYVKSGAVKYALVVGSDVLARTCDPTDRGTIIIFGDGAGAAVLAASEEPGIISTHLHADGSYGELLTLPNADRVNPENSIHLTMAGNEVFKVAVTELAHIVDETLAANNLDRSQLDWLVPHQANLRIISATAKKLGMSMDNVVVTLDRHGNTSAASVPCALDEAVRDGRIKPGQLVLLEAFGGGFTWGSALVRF
Description: Inhibition of Escherichia coli FabH.

The subject of another data set is Bacillus subtilis. Description: Antimicrobial activity against Bacillus subtilis ATCC 6633 by MTT assay. It counts as functional.
A short description of data set [2]: Toxicity against RBC assessed as hemolysis. In kind it is cell-based. The settings on record: erythrocyte.
The next data set concerns Enterobacter cloacae. In words: Antimicrobial activity against Enterobacter cloacae ATCC 13047 by MTT assay. It counts as functional.
The next data set concerns Enterococcus faecalis. Description: Antimicrobial activity against Streptococcus faecalis ATCC 9790 by MTT assay. In kind it is functional.
The test system of the next data set is Escherichia coli. Description: Antimicrobial activity against Escherichia coli ATCC 35218 by MTT assay. It counts as functional.

Turning to `COc1ccc(C2=NN(C(C)=O)C(c3ccc(C)cc3)C2)cc1` (stereo not given), the MIC (as a rule, the lowest concentration that inhibits growth of the organism) against Pseudomonas aeruginosa was determined as 12.5 µg/mL (≈ 40.5 µM); against Staphylococcus aureus, 6.25 µg/mL (≈ 20.3 µM); against Bacillus subtilis, 25 µg/mL (≈ 81.1 µM); against Enterobacter cloacae, 3.12 µg/mL (≈ 10.1 µM); against Enterococcus faecalis it was 25 µg/mL (≈ 81.1 µM); in the data set on Escherichia coli, 6.25 µg/mL (≈ 20.3 µM). The IC50 (commonly the concentration needed to halve the response being measured) in data set [1] turned out to be 17.3 µM. For the same compound, the LC30 in data set [2] was greater than 10000 µg/mL.
Turning to `COc1ccc(C2=NN(C(C)=O)C(c3ccccc3Cl)C2)cc1` (stereo not given), the MIC against Pseudomonas aeruginosa is greater than 50 µg/mL; against Staphylococcus aureus, greater than 50 µg/mL; against Bacillus subtilis it was 25 µg/mL (≈ 76 µM); against Enterobacter cloacae, 6.25 µg/mL (≈ 19 µM); in the data set on Enterococcus faecalis, 12.5 µg/mL (≈ 38 µM); in the data set on Escherichia coli it was 6.25 µg/mL (≈ 19 µM). In data set [1], this compound registered an IC50 of 31.4 µM. In addition, the LC30 in data set [2] is greater than 10000 µg/mL.
Regarding `COc1ccc(C2=NN(C(C)=O)C(c3ccc(Cl)cc3)C2)cc1` (stereo not given), the MIC against Pseudomonas aeruginosa was determined as 25 µg/mL (≈ 76 µM); in the data set with Staphylococcus aureus it was 25 µg/mL (≈ 76 µM); against Bacillus subtilis it was 6.25 µg/mL (≈ 19 µM); in the data set on Enterobacter cloacae, 25 µg/mL (≈ 76 µM); against Enterococcus faecalis, 6.25 µg/mL (≈ 19 µM); in the data set on Escherichia coli it was 0.78 µg/mL (≈ 2.37 µM). Further, in data set [1], the IC50 came to 7.6 µM. In addition, the LC30 in data set [2] is greater than 10000 µg/mL.
As to `COc1ccc(C2=NN(C(C)=O)C(c3ccc(F)cc3)C2)cc1` (stereo not given), the MIC with Pseudomonas aeruginosa was 12.5 µg/mL (≈ 40 µM); in the data set on Staphylococcus aureus, 6.25 µg/mL (≈ 20 µM); in the data set on Bacillus subtilis, 6.25 µg/mL (≈ 20 µM); in the data set with Enterobacter cloacae, 12.5 µg/mL (≈ 40 µM); against Enterococcus faecalis, 1.56 µg/mL (≈ 5 µM); with Escherichia coli, 0.39 µg/mL (≈ 1.25 µM). In data set [1], this compound yielded an IC50 of 4.2 µM. In addition, the LC30 in data set [2] is greater than 10000 µg/mL.
Regarding `CC(=O)N1N=C(c2ccc(Cl)cc2)CC1c1ccc(Cl)cc1` (stereo not given), the MIC in the data set on Pseudomonas aeruginosa stood at 6.25 µg/mL (≈ 18.8 µM); against Staphylococcus aureus, 25 µg/mL (≈ 75 µM); with Bacillus subtilis, 12.5 µg/mL (≈ 37.5 µM); in the data set on Enterobacter cloacae it was 25 µg/mL (≈ 75 µM); against Enterococcus faecalis it was 6.25 µg/mL (≈ 18.8 µM); against Escherichia coli, 12.5 µg/mL (≈ 37.5 µM).
In the case of `CC(=O)N1N=C(c2ccc(C)c(C)c2)CC1c1ccc(Cl)cc1` (stereo not given), the MIC was 6.25 µg/mL (≈ 19.1 µM) in the data set with Pseudomonas aeruginosa; 1.56 µg/mL (≈ 4.78 µM) against Staphylococcus aureus; greater than 50 µg/mL in the data set with Bacillus subtilis; 6.25 µg/mL (≈ 19.1 µM) in the data set with Enterobacter cloacae; 50 µg/mL (≈ 153 µM) in the data set with Enterococcus faecalis; 12.5 µg/mL (≈ 38.2 µM) against Escherichia coli.
Consider `COc1ccc(C2CC(c3ccc(Br)cc3)=NN2C(C)=O)cc1` (stereo not given), for which the MIC against Pseudomonas aeruginosa was 1.56 µg/mL (≈ 4.18 µM); in the data set on Staphylococcus aureus, 12.5 µg/mL (≈ 33.5 µM); against Bacillus subtilis, 25 µg/mL (≈ 67 µM); in the data set with Enterobacter cloacae it was 3.12 µg/mL (≈ 8.37 µM); in the data set on Enterococcus faecalis it was 6.25 µg/mL (≈ 16.7 µM); in the data set with Escherichia coli, 50 µg/mL (≈ 134 µM).
For the compound `COc1ccc(C2=NN(C(C)=O)C(c3ccc(Br)cc3)C2)cc1` (stereo not given), the MIC in the data set on Pseudomonas aeruginosa is 12.5 µg/mL (≈ 33.5 µM); in the data set on Staphylococcus aureus, 12.5 µg/mL (≈ 33.5 µM); in the data set with Bacillus subtilis it was 12.5 µg/mL (≈ 33.5 µM); in the data set with Enterobacter cloacae it was greater than 50 µg/mL; in the data set with Enterococcus faecalis, 3.12 µg/mL (≈ 8.37 µM); with Escherichia coli it was 1.56 µg/mL (≈ 4.18 µM). The compound further gave an IC50 in data set [1] of 10.4 µM. In data set [2], the LC30 is greater than 10000 µg/mL.
For `CC(=O)N1N=C(c2ccc(Cl)cc2)CC1c1ccc(Br)cc1` (stereo not given), the minimum inhibitory concentration (MIC) with Pseudomonas aeruginosa was greater than 50 µg/mL; in the data set on Staphylococcus aureus it was 25 µg/mL (≈ 66.2 µM); against Bacillus subtilis it was 6.25 µg/mL (≈ 16.5 µM); in the data set with Enterobacter cloacae, greater than 50 µg/mL; in the data set on Enterococcus faecalis, 6.25 µg/mL (≈ 16.5 µM); against Escherichia coli, 12.5 µg/mL (≈ 33.1 µM).
As for `NC[C@H]1O[C@H](O[C@H]2[C@H](O)[C@@H](O[C@H]3O[C@H](CO)[C@@H](O)[C@H](N)[C@H]3O)[C@H](N)C[C@@H]2N)[C@H](N)[C@@H](O)[C@@H]1O` [BEKANAMYCIN], the MIC against Pseudomonas aeruginosa amounted to 3.12 µg/mL (≈ 6.46 µM); in the data set on Staphylococcus aureus, 3.12 µg/mL (≈ 6.46 µM); against Bacillus subtilis, 0.39 µg/mL (≈ 0.807 µM); against Enterobacter cloacae, 1.56 µg/mL (≈ 3.23 µM); in the data set on Enterococcus faecalis, 3.12 µg/mL (≈ 6.46 µM); in the data set with Escherichia coli it was 1.56 µg/mL (≈ 3.23 µM).
`COc1cc(OC)cc(C2CC(c3ccc(Br)cc3)=NN2C(C)=O)c1` (stereo not given): the MIC with Pseudomonas aeruginosa stood at 3.12 µg/mL (≈ 7.75 µM); with Staphylococcus aureus, 6.25 µg/mL (≈ 15.5 µM); in the data set on Bacillus subtilis, 50 µg/mL (≈ 124 µM); in the data set on Enterobacter cloacae it was 12.5 µg/mL (≈ 31 µM); in the data set with Enterococcus faecalis, 25 µg/mL (≈ 62 µM); against Escherichia coli, 50 µg/mL (≈ 124 µM).
Turning to `COc1ccc(C2CC(c3ccccc3F)=NN2C(C)=O)cc1` (stereo not given), the MIC amounted to 25 µg/mL (≈ 80 µM) against Pseudomonas aeruginosa; 25 µg/mL (≈ 80 µM) in the data set on Staphylococcus aureus; 6.25 µg/mL (≈ 20 µM) against Bacillus subtilis; 25 µg/mL (≈ 80 µM) in the data set with Enterobacter cloacae; 12.5 µg/mL (≈ 40 µM) against Enterococcus faecalis; 12.5 µg/mL (≈ 40 µM) against Escherichia coli.
Turning to `CC(=O)N1N=C(c2ccc(Cl)c(Cl)c2)CC1c1ccccc1` (stereo not given), the MIC with Pseudomonas aeruginosa is 25 µg/mL (≈ 75 µM); in the data set on Staphylococcus aureus, greater than 50 µg/mL; in the data set on Bacillus subtilis, 6.25 µg/mL (≈ 18.8 µM); in the data set on Enterobacter cloacae it was 25 µg/mL (≈ 75 µM); against Enterococcus faecalis, 12.5 µg/mL (≈ 37.5 µM); in the data set on Escherichia coli, 12.5 µg/mL (≈ 37.5 µM).
Regarding `CC(=O)N1N=C(c2ccc(Cl)cc2)CC1c1ccccc1Cl` (stereo not given), the MIC against Pseudomonas aeruginosa came out at 12.5 µg/mL (≈ 37.5 µM); in the data set on Staphylococcus aureus, 25 µg/mL (≈ 75 µM); against Bacillus subtilis, 6.25 µg/mL (≈ 18.8 µM); against Enterobacter cloacae, 12.5 µg/mL (≈ 37.5 µM); in the data set with Enterococcus faecalis, 50 µg/mL (≈ 150 µM); in the data set on Escherichia coli it was 12.5 µg/mL (≈ 37.5 µM).
Regarding `CC(=O)N1N=C(c2ccc(Cl)cc2)CC1c1ccccc1` (stereo not given), the MIC is greater than 50 µg/mL with Pseudomonas aeruginosa; greater than 50 µg/mL against Staphylococcus aureus; 12.5 µg/mL (≈ 41.8 µM) against Bacillus subtilis; 12.5 µg/mL (≈ 41.8 µM) in the data set with Enterobacter cloacae; 25 µg/mL (≈ 83.7 µM) against Enterococcus faecalis; 25 µg/mL (≈ 83.7 µM) against Escherichia coli.
